Laboratory results as given in patent publication US20040266843A1, “Sulfonamide substituted indolinones as inhibitors of DNA dependent protein kinase (DNA-PK)” (Sugen, Inc., priority 2003, published 2004).

Target: DNA-PKcs (Homo sapiens, UniProt P78527)
Assay: DNA-PK assay, Scintillation Proximity Assay (SPA) format
Format: biochemical
Conditions: room temperature, 0.23 nM DNA-PKcs, 0.3 μM ATP, 1% DMSO
Procedure: The assay for DNA-PK was optimized to be performed in 96-well plates using a Scintillation Proximity Assay (SPA) format at room temperature. […] When inhibitors were included, they were diluted to 5× the desired concentration in 5% DMSO and diluted 1:5 in the reaction mixture bringing the final DMSO concentration to 1%. […] Activating DNA-DNA fragment consisting of 32 complementary base pairs with 5 non-complementary T's on both ends of the two strands Sequence-[NT], and of the complementary strand-[NT]. […] Peptide substrate-biotin-[…]. Dissolved in DMSO at a concentration of 5 mg/ml for the stock solution. Alternatively, fragments of the peptide substrate can be used, such as, without limitation, […]. The kinase reaction was stopped by adding […] of a solution containing 50 μM ATP, 5 mM EDTA, 0.1% Triton X-100, and 0.5 mg of streptavidin coated polyvinyltoluene SPA beads (Amersham). After a 10 min. incubation and a short spin (to pellet the beads), the plates were read on a Trilux plate reader.

DNA-PKcs, sequence (P78527 whole entry): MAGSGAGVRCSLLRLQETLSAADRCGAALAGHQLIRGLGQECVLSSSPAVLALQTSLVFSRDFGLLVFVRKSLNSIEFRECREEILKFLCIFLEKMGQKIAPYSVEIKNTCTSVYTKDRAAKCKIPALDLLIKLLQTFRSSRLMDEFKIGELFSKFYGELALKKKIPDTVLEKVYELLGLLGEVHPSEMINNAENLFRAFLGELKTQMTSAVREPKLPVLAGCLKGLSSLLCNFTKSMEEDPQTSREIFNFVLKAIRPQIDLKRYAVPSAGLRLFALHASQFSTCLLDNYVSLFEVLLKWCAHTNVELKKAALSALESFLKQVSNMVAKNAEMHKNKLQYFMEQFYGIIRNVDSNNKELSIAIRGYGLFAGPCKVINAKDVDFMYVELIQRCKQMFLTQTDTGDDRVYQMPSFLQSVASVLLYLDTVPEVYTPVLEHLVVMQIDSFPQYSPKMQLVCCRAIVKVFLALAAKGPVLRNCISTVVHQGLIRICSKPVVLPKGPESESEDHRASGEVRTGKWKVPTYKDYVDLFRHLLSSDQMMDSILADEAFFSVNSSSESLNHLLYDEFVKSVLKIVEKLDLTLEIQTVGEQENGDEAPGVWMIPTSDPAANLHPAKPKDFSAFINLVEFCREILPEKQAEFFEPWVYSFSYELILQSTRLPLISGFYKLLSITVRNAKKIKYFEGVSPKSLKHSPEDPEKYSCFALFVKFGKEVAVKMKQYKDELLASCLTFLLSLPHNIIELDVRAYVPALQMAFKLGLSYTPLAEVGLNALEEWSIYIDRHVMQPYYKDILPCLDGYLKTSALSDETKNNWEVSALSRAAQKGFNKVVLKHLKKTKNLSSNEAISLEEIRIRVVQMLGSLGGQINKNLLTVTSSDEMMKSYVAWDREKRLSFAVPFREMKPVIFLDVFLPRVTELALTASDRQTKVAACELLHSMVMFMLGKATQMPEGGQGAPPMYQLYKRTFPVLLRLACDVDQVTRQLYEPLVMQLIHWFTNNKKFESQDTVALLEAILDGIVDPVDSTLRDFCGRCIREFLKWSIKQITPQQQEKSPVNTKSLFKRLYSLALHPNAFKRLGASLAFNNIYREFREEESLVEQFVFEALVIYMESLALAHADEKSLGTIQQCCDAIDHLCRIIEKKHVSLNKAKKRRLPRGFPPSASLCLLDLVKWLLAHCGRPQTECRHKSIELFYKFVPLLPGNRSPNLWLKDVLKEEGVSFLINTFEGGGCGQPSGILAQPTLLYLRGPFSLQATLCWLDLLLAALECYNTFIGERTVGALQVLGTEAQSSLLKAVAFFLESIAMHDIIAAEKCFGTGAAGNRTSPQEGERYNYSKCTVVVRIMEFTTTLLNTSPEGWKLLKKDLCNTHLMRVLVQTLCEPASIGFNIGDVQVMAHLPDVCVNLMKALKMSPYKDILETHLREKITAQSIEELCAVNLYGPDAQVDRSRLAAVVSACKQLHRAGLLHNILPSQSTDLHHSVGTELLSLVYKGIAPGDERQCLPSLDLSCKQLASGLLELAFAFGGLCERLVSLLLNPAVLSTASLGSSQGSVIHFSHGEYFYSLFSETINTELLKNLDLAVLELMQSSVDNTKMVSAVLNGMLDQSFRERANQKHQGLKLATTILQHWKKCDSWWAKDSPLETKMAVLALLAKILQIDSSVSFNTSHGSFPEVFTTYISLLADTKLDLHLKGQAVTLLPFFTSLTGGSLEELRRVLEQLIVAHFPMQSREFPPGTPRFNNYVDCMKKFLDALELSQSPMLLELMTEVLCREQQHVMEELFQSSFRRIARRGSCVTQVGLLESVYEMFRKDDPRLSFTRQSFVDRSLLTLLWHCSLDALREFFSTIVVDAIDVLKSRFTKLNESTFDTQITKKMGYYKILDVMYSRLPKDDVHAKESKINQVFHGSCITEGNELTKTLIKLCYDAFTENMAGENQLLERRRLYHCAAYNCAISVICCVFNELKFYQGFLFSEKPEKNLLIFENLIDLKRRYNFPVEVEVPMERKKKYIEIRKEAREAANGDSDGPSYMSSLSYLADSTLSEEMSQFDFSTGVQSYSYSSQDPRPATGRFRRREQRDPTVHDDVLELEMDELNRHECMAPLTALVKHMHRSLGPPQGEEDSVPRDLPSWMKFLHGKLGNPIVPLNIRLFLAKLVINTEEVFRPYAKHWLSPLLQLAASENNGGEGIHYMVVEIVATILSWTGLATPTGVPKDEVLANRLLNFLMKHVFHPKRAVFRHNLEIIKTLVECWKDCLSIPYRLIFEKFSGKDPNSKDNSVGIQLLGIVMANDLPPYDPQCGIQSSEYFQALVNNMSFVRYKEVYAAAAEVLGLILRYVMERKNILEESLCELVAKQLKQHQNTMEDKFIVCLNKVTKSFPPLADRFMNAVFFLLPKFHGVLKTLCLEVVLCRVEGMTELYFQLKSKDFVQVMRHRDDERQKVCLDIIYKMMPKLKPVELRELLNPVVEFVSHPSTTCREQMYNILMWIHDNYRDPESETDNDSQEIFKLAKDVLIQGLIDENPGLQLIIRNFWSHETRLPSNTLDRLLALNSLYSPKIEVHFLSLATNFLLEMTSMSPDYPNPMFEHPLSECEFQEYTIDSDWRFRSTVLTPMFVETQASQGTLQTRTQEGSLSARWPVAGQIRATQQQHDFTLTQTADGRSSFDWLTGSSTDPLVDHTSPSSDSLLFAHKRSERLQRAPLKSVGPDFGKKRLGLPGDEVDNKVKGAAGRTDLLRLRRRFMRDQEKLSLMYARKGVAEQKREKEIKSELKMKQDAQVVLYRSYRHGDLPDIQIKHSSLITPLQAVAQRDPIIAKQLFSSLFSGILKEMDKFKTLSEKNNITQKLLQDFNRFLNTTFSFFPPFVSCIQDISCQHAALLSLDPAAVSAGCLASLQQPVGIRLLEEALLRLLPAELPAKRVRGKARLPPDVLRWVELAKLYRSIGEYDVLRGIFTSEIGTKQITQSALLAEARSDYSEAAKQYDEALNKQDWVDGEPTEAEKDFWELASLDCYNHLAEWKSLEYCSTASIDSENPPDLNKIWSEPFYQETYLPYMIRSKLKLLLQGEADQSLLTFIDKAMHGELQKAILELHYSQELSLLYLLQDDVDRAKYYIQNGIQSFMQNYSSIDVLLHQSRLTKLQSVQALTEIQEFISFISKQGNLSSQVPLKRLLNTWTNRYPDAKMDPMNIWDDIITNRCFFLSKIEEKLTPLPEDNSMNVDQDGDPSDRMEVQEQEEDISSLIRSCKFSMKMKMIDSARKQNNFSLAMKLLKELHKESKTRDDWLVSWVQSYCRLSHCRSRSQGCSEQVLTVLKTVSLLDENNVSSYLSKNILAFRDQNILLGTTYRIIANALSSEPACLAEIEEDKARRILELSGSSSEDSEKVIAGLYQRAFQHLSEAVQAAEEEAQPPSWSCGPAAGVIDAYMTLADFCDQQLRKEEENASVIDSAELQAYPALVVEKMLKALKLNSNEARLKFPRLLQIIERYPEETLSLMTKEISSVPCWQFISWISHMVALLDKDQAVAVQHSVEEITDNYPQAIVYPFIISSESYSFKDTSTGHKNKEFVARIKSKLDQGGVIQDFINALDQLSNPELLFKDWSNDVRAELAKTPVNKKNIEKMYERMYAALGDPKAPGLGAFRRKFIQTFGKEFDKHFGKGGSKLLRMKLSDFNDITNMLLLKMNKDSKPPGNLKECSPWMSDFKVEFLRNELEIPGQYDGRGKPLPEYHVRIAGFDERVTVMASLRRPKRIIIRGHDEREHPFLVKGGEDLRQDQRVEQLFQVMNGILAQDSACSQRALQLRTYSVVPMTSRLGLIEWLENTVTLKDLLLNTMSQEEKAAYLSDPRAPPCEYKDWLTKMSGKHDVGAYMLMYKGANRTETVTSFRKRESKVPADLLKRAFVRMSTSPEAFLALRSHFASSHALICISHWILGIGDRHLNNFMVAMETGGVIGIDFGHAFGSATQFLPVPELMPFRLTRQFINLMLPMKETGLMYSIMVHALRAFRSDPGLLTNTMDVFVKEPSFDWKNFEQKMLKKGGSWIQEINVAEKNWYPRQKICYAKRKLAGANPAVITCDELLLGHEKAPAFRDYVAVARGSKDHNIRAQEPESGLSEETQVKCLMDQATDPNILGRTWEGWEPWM

IC50	Compound
1700 nM	2-oxo-3-[5-(2-pyrrolidin-1-yl-ethoxy-1H-indol-2-ylmethylene]-2,3-dihydro-1H-indole-sulfonic acid amide
66000 nM	CNS(=O)(=O)c1ccc2c(c1)C(=Cc1[nH]c3c(c1CCCN(C)C)CCCC3)C(=O)N2 [3-{3-(3-dimethylamino-propyl)-4,5,6,7-tetrahydro-1H-indol-2-ylmethylene]-2-oxo-2,3-dihydro-1H-indole-5-sulfonic acid methylamide]
1500 nM	Cc1c(CCC(=O)O)c[nH]c1/C=C1\C(=O)Nc2ccc(I)cc21 [3-{5-[(Z)-(5-iodo-2-oxo-1,2-dihydro-3H-indol-3-ylidene)methyl]-4-methyl-1H-pyrrol-3-yl}propanoic acid]
34000 nM	CCN(CC)CCNC(=O)c1c(C)[nH]c(C=C2C(=O)Nc3ccc(Br)cc32)c1C [5-(5-bromo-2-oxo-1,2-dihydro-indol-3-ylidenemethyl)-2,4-dimethyl-1H-pyrrole-3-carboxylic acid-(2-diethylamino-ethyl)-amide]
1600 nM	CCc1[nH]c(/C=C2\C(=O)Nc3ccc(S(=O)(=O)Nc4ccccc4)cc32)c(CC)c1CCC(=O)O [Example 83, 3-[2,4-Diethyl-5-(2-oxo-5-phenylsulfamoyl-1,2-dihydro-indol-3-ylidenemethyl)-1H-pyrrol-3-yl]-propionic acid]

Test system: not listed separately
Assay: Storage stability of stock solution
Format: physicochemical
Conditions: 2 mM in DMSO, stored at −70° C., after 12 months
Procedure: 3-[2,4-Diethyl-5-(2-oxo-5-phenylsulfamoyl-1,2-dihydro-indol-3-ylidenemethyl)-1H-pyrrol-3-yl]-propionic acid was dissolved in DMSO at 20 mg/ml and stored at −70° C. Calicheamicin μl was a generous gift from George Ellestad (Wyeth-Ayers Research). The drug was dissolved at 2 mM in DMSO (Sigma) and stored at −70° C. […] Wortmannin (Sigma) was dissolved at 1 mg/ml in DMSO and stored at −70° C. Recombinant p110 was purchased from Alexis and stored at −70° C. The glioblastoma cell line Mo59K and primary human fibroblasts was grown in Dulbecos MEM with glutamax (Invitrogen) supplemented with 10% Fetal calf serum, streptomycin and penicillin at 37° C. in a humidified cell incubator with 5% CO2. FACS analysis of cell cycle distribution after propiumiodide staining was done using standard protocols. Monolayers were irradiated on ice using a Philips RT 100 X-ray machine. An acceleration voltage of 70 kV was used.

Compound	loss of activity on storage
calicheamicin μl	no loss of activity
